Test results published in PMC4229385 (Circulation, 2014).

Target: V1AR (AVP type 1A receptor) (Homo sapiens, UniProt P37288)
Assay: DAGR FRET assay, block of AVP-induced DAG generation at […]
Format: cell-based

V1AR (AVP type 1A receptor), sequence (P37288 whole entry): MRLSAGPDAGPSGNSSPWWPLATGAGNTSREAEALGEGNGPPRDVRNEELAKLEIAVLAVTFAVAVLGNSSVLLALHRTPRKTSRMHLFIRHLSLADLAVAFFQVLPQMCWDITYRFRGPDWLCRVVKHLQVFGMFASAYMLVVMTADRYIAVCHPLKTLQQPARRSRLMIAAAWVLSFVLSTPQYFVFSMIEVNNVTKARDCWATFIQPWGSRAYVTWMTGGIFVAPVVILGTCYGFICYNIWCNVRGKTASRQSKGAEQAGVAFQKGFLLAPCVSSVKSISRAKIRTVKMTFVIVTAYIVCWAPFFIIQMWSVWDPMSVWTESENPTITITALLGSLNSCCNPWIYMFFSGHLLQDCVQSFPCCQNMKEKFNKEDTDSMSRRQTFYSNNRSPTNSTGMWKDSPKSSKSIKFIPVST

## COc1ccc(S(=O)(=O)N2c3ccc(Cl)cc3[C@](O)(c3ccccc3Cl)[C@@H]2C(=O)N2CCC[C@H]2C(N)=O)cc1OC [SR 49059]
  DAGR FRET assay, block of AVP-induced DAG generation at 10 μM: it completely blocked AVP-dependent DAG production (Fig. 4E)
